Test results taken from patent US20180282310A1, “FORMS AND COMPOSITIONS OF BIARYL INHIBITORS OF BRUTON'S TYROSINE KINASE” (BIOGEN MA INC., priority 2015, published 2018).
In brackets after ≈: the same amount, converted by molar mass. Values belong to the compound of their own block, whether it stands above or below them.

Assays:
Format in all cases: physicochemical
[1] = Estimated solubility in solvents at room temperature (stepwise solvent addition); conditions: for solubility: thermodynamic from solid
Experimental: Approximately 2 mg solids were added into a 3-mL glass vial. Solvents in Table 39 were then added step wise (100 μL per step) into the vials until the solids were dissolved or a total volume of 2 mL was reached. Results summarized in Table 39 were used to guide the solvent selection in polymorph screening. […] Approximately 2 mg solids were added into a 3-mL glass vial. Solvents in Table 4-6 were then added stepwise (100 μL per step) into the vials until the solids were dissolved or a total volume of 2 mL was reached. Results are summarized in Table 57, which were used to guide the solvent selection in polymorph screening.

[2] = Physical form stability on storage or drying (XRPD/TGA)
Description: A sample of Compound 2 Type B reference was generated via evaporation of a solution in MeOH/MIBK (v/v, 4:1) at room temperature. […] As the sample was still wet after form transformation, Compound 2 Type B is suspected to be a metastable form at ambient conditions.

[3] = Dynamic vapor sorption (DVS): hygroscopicity and physical stability under humidity
Experimental: Dynamic Vapor Sorption (DVS) was measured via a SMS (Surface Measurement Systems) DVS Intrinsic.
To evaluate the hygroscopicity and physical stability of Compound 2 Type A under increased humidity, DVS isotherm data was collected at 25° C. with the starting sample pre-dried at 0% RH until a mass change rate lower than 0.002%/min.

Compound: Cc1cc(-c2ccnc(Nc3cnn(C)c3)n2)ccc1CNC(=O)N1CC(OC(C)C)C1 [Compound 1 Type A, 3-isopropoxy-N-(2-methyl-4-(2-((1-methyl-1H-pyrazol-4-yl)amino)pyrimidin-4-yl)benzyl)azetidine-1-carboxamide]
solubility ([1]; organic solvent or mixture, 1,4-Dioxane, room temperature): 3500 to 4200 µg/mL (≈ 8.04 to 9.64 mM)
solubility ([1]; organic solvent or mixture, 2-MeTHF, room temperature): 2200 to 2400 µg/mL (≈ 5.05 to 5.51 mM)
solubility ([1]; organic solvent or mixture, ACN, room temperature): 2300 to 2600 µg/mL (≈ 5.28 to 5.97 mM)
solubility ([1]; organic solvent or mixture, Acetic acid, room temperature): > 54000 µg/mL
solubility ([1]; organic solvent or mixture, Acetone, room temperature): 4600 to 5800 µg/mL (≈ 10.6 to 13.3 mM)
solubility ([1]; organic solvent or mixture, CHCl3, room temperature): 20000 to 40000 µg/mL (≈ 45.9 to 91.8 mM)
solubility ([1]; organic solvent or mixture, DCM, room temperature): 12000 to 24000 µg/mL (≈ 27.6 to 55.1 mM)
solubility ([1]; organic solvent or mixture, DMAc, room temperature): > 54000 µg/mL
solubility ([1]; organic solvent or mixture, DMSO, room temperature): > 38000 µg/mL
solubility ([1]; organic solvent or mixture, EtOAc, room temperature): 1400 to 1500 µg/mL (≈ 3.21 to 3.44 mM)
solubility ([1]; organic solvent or mixture, EtOH, room temperature): 4400 to 5500 µg/mL (≈ 10.1 to 12.6 mM)
solubility ([1]; organic solvent or mixture, IPA, room temperature): 3000 to 3500 µg/mL (≈ 6.89 to 8.04 mM)
solubility ([1]; organic solvent or mixture, IPAc, room temperature): < 1500 µg/mL
solubility ([1]; organic solvent or mixture, MIBK, room temperature): < 1400 µg/mL
solubility ([1]; organic solvent or mixture, MTBE, room temperature): < 1300 µg/mL
solubility ([1]; organic solvent or mixture, MeOH, room temperature): 12500 to 25000 µg/mL (≈ 28.7 to 57.4 mM)
solubility ([1]; organic solvent or mixture, NMP, room temperature): > 56000 µg/mL
solubility ([1]; organic solvent or mixture, THF, room temperature): 6000 to 9000 µg/mL (≈ 13.8 to 20.7 mM)
solubility ([1]; organic solvent or mixture, Toluene, room temperature): < 900 µg/mL
solubility ([1]; organic solvent or mixture, n-Heptane, room temperature): < 1500 µg/mL
solubility ([1]; water, H2O, room temperature): < 1100 µg/mL

Compound: Cc1cc(-c2ccnc(Nc3cnn(C)c3)n2)ccc1CNC(=O)N1CC(OC(C)C)C1.Cl [Compound 2 Type A]
Form change after the DVS test (XRPD) ([3]; 25° C.): no form change
Hygroscopicity (DVS) ([3]; 25° C.): slightly hygroscopic
Water uptake (DVS) ([3]; 25° C./80% RH, sample pre-dried at 0% RH): 1.0%
solubility ([1]; 20 °C, organic solvent or mixture, 1,4-dioxane, room temperature (RT, 20±3° C.)): < 1000 µg/mL
solubility ([1]; 20 °C, organic solvent or mixture, 2-MeTHF, room temperature (RT, 20±3° C.)): < 1000 µg/mL
solubility ([1]; 20 °C, organic solvent or mixture, ACN, room temperature (RT, 20±3° C.)): < 1000 µg/mL
solubility ([1]; 20 °C, organic solvent or mixture, Acetone, room temperature (RT, 20±3° C.)): < 900 µg/mL
solubility ([1]; 20 °C, organic solvent or mixture, CHCl3, room temperature (RT, 20±3° C.)): < 1100 µg/mL
solubility ([1]; 20 °C, organic solvent or mixture, DCM, room temperature (RT, 20±3° C.)): < 1100 µg/mL
solubility ([1]; 20 °C, organic solvent or mixture, DMAc, room temperature (RT, 20±3° C.)): 22000 to 44000 µg/mL
solubility ([1]; 20 °C, organic solvent or mixture, DMSO, room temperature (RT, 20±3° C.)): 14000 to 21000 µg/mL
solubility ([1]; 20 °C, organic solvent or mixture, EtOAc, room temperature (RT, 20±3° C.)): < 1000 µg/mL
solubility ([1]; 20 °C, organic solvent or mixture, EtOH, room temperature (RT, 20±3° C.)): 4400 to 5500 µg/mL
solubility ([1]; 20 °C, organic solvent or mixture, IPA, room temperature (RT, 20±3° C.)): 1700 to 1800 µg/mL
solubility ([1]; 20 °C, organic solvent or mixture, IPAc, room temperature (RT, 20±3° C.)): < 1200 µg/mL
solubility ([1]; 20 °C, organic solvent or mixture, MIBK, room temperature (RT, 20±3° C.)): < 1000 µg/mL
solubility ([1]; 20 °C, organic solvent or mixture, MTBE, room temperature (RT, 20±3° C.)): < 1000 µg/mL
solubility ([1]; 20 °C, organic solvent or mixture, MeOH, room temperature (RT, 20±3° C.)): > 34000 µg/mL
solubility ([1]; 20 °C, organic solvent or mixture, NMP, room temperature (RT, 20±3° C.)): 14700 to 22000 µg/mL
solubility ([1]; 20 °C, organic solvent or mixture, THF, room temperature (RT, 20±3° C.)): < 900 µg/mL
solubility ([1]; 20 °C, organic solvent or mixture, Toluene, room temperature (RT, 20±3° C.)): < 1100 µg/mL
solubility ([1]; 20 °C, organic solvent or mixture, n-heptane, room temperature (RT, 20±3° C.)): < 900 µg/mL
Behaviour in the solubility test (stability of the salt) ([1]; H2O, room temperature, colour change of solids from orange to faint yellow): N/A: disproportionation occurred along with obvious color change of solids from orange to faint yellow.

Further lines, results first:

Physical stability on vacuum drying ([2]; vacuum dried at 80° C. for 15 hrs): physically unstable
Form change after the DVS test (XRPD) ([3]; 25° C.): no form change
Hygroscopicity (DVS) ([3]; 25° C.): slightly hygroscopic
Behaviour at low humidity (DVS) ([3]; relative humidity (RH) less than 10%, 25° C.): tends to dehydrate
Compound: Cc1cc(-c2ccnc(Nc3cnn(C)c3)n2)ccc1CNC(=O)N1CC(OC(C)C)C1 [Compound 1 Type B, 3-isopropoxy-N-(2-methyl-4-(2-((1-methyl-1H-pyrazol-4-yl)amino)pyrimidin-4-yl)benzyl)azetidine-1-carboxamide]

Solid form after storage (XRPD) ([2]; ambient conditions for 2 days): conformed to Type B
Compound: Cc1cc(-c2ccnc(Nc3cnn(C)c3)n2)ccc1CNC(=O)N1CC(OC(C)C)C1 [Compound 1 Type E, 3-isopropoxy-N-(2-methyl-4-(2-((1-methyl-1H-pyrazol-4-yl)amino)pyrimidin-4-yl)benzyl)azetidine-1-carboxamide]

Solid form change during air drying (XRPD) ([2]; air drying at ambient conditions): converted into Compound 2 Type A
Compound: Cc1cc(-c2ccnc(Nc3cnn(C)c3)n2)ccc1CNC(=O)N1CC(OC(C)C)C1.Cl [Compound 2 Type B]
